In one series the target is T1, human GLP-1 receptor (Homo sapiens, UniProt P43220).
T1 construct: expressed in transfected cells; host or cells: membranes of BHK cells, parent line BHKTS13, clone FCW467-12A
In words: Assay (II)(a): GLP-1 receptor binding, [125I]GLP-1 displacement, SPA on BHK membranes. The settings on record: displacement of [125I]GLP-1, membranes with human GLP-1 receptor; read-out: IC50 GLP-1R. An outline of the steps:
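Membranes from BHK cells expressing human GLP-1 receptor with WGA SPA beads, [125I]GLP-1(7-36)NH2 (480 pM added solution) and compound in HEPES pH 7.4 buffer with EGTA, MgCl2, Tween 20. Incubated 2 h at 30° C; SPA counts fitted by non-linear regression to IC50 in nM.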
(In general: Displacement assays read how much labelled ligand stays bound in the presence of the test substance.)

The nature of series [1]: Assay (V): chemical stability assessment by RP-UPLC. The format is physicochemical. The settings on record: 14 days at 37° C. in phosphate buffer (pH 7.3). A digest of the protocol: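 Lyophilized peptide dissolved in 8 mM phosphate pH 8.6, adjusted to pH 7.3, final 333 μM, held 14 days at 5° C and 37° C. Purity is main-peak area % by RP-UPLC with UV detection at 215 nm. Degradation is the 5° C minus 37° C purity difference divided by the 5° C purity.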

*1 amine or outer side, *2 acyl side, *3 side chain or, on linkers, in order; H or OH if unused. Where a SMILES comes first, the peptide text is derived from it. Bridges are numbered along the chain shown (N, C = ends). Roman numbers before positions name the chains, in order. Side-chain parts run from the residue outwards. [ ]: non-standard residue; d: D form. The star is where a group is joined. C18 diacid = O=C(O)CCCCCCCCCCCCCCCCC(=O)*; γGlu = O=C(O)[C@H](CCC(=O)[*:2])N[*:1]; Desaminohistidyl = O=C(CCc1c[nH]cn1)*; Ac4c = NC1(C(=O)O)CCC1; AEEA = NCCOCCOCC(=O)O; Aib = CC(C)(N)C(=O)O

T1 sequence (P43220 24-463): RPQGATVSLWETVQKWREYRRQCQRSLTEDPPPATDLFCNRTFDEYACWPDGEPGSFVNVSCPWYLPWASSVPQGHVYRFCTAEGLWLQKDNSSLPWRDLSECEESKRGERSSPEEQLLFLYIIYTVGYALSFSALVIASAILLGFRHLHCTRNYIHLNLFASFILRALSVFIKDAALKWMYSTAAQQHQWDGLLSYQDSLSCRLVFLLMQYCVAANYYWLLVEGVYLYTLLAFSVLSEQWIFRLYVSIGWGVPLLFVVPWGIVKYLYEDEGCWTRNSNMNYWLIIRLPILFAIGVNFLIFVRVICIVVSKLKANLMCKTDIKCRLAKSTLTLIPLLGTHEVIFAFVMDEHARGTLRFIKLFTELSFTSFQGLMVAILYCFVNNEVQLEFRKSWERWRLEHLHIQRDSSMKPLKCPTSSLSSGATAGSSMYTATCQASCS

The term IC50 denotes the point on the concentration scale where inhibition reaches its midpoint. On to `CC[C@H](C)[C@H](NC(=O)[C@H](Cc1ccccc1)NC(=O)[C@H](CCC(=O)O)NC(=O)[C@H](CCCNC(=N)N)NC(=O)[C@H](C)NC(=O)[C@H](C)NC(=O)[C@H](CCC(N)=O)NC(=O)[C@H](CCC(=O)O)NC(=O)[C@H](CCC(=O)O)NC(=O)[C@H](CC(C)C)NC(=O)[C@H](Cc1ccc(O)cc1)NC(=O)[C@H](CCCNC(=N)N)NC(=O)[C@H](CO)NC(=O)[C@@H](NC(=O)[C@H](CC(=O)O)NC(=O)[C@H](CO)NC(=O)[C@@H](NC(=O)[C@H](Cc1ccccc1)NC(=O)[C@@H](NC(=O)CNC(=O)[C@H](Cc1c[nH]cn1)NC(=O)C(C)(C)NC(=O)CCc1c[nH]cn1)[C@@H](C)O)[C@@H](C)O)C(C)C)C(=O)N[C@@H](C)C(=O)N[C@@H](Cc1c[nH]c2ccccc12)C(=O)N[C@@H](CC(C)C)C(=O)N[C@@H](CC(C)C)C(=O)N[C@@H](CCCCNC(=O)CNC(=O)[C@H](CO)NC(=O)[C@H](CCC(=O)O)NC(=O)CNC(=O)[C@H](CO)NC(=O)CC[C@H](NC(=O)CC[C@H](NC(=O)CCCCCCCCCCCCCCCCC(=O)O)C(=O)O)C(=O)O)C(=O)N[C@H](C(N)=O)[C@@H](C)O` [Example 7, N^ε34-[2-[[(2S)-2-[[(2S)-4-carboxy-2-[[2-[[(2S)-2-[[(4S)-4-carboxy-4-[[(4S)-4-carboxy-4-(17-carboxyheptadecanoylamino)butanoyl]amino]butanoyl]amino]-3-hydroxypropanoyl]amino]acetyl]amino]butanoyl]amino]-3-hydroxypropanoyl]amino]acetyl]-[Imp7,Aib8,His9,Arg18,Glu22,Arg26,Leu33,Thr35]-GLP-1-(7-35)-peptide amide] (I: Desaminohistidyl-[Aib]HGTFTSDVSRYLEEQAAREFIAWLLKT-NH2 / II: {C18 diacid-γGlu-γGlu}-SGESG; amide I:27-II:C), for which the IC50 at human GLP-1 receptor worked out at 0.5 nM. For the same molecule, the “Chemical stability: Chemical degradation over 14 days at 37° C.” value (from here on “Chemical stability … over 14 days at 37° C.”) in series [1] was 0.0%.

In the case of `CC[C@H](C)[C@H](NC(=O)[C@H](Cc1ccccc1)NC(=O)[C@H](CCC(=O)O)NC(=O)[C@H](CCCNC(=N)N)NC(=O)[C@H](C)NC(=O)[C@H](C)NC(=O)[C@H](CCC(N)=O)NC(=O)CNC(=O)[C@H](CCC(=O)O)NC(=O)[C@H](CC(C)C)NC(=O)[C@H](Cc1ccc(O)cc1)NC(=O)[C@H](CCCNC(=N)N)NC(=O)[C@H](CO)NC(=O)[C@@H](NC(=O)[C@H](CC(=O)O)NC(=O)[C@H](CO)NC(=O)[C@@H](NC(=O)[C@H](Cc1ccccc1)NC(=O)[C@@H](NC(=O)CNC(=O)[C@H](Cc1c[nH]cn1)NC(=O)C(C)(C)NC(=O)CCc1c[nH]cn1)[C@@H](C)O)[C@@H](C)O)C(C)C)C(=O)N[C@@H](C)C(=O)N[C@@H](Cc1c[nH]c2ccccc12)C(=O)N[C@@H](CC(C)C)C(=O)N[C@@H](CC(C)C)C(=O)N[C@@H](CCCCNC(=O)CNC(=O)[C@H](CO)NC(=O)[C@H](CCC(=O)O)NC(=O)CNC(=O)[C@H](CO)NC(=O)CC[C@H](NC(=O)CC[C@H](NC(=O)CCCCCCCCCCCCCCCCC(=O)O)C(=O)O)C(=O)O)C(=O)N[C@H](C(N)=O)[C@@H](C)O` [Example 8, N^ε34-[2-[[(2S)-2-[[(2S)-4-carboxy-2-[[2-[[(2S)-2-[[(4S)-4-carboxy-4-[[(4S)-4-carboxy-4-(17-carboxyheptadecanoylamino)butanoyl]amino]butanoyl]amino]-3-hydroxypropanoyl]amino]acetyl]amino]butanoyl]amino]-3-hydroxypropanoyl]amino]acetyl]-[Imp7,Aib8,His9,Arg18,Arg26,Leu33,Thr35]-GLP-1-(7-35)-peptide amide] (I: Desaminohistidyl-[Aib]HGTFTSDVSRYLEGQAAREFIAWLLKT-NH2 / II: {C18 diacid-γGlu-γGlu}-SGESG; amide I:27-II:C), at human GLP-1 receptor, the IC50 turned out to be 0.9 nM. Further, in series [1], the “Chemical stability … over 14 days at 37° C.” value was 1.6%.

As for `CC[C@H](C)[C@H](NC(=O)[C@H](Cc1ccccc1)NC(=O)[C@H](CCC(=O)O)NC(=O)[C@H](CCCNC(=N)N)NC(=O)[C@H](C)NC(=O)[C@H](C)NC(=O)[C@H](CCC(N)=O)NC(=O)[C@H](CCC(=O)O)NC(=O)[C@H](CCC(=O)O)NC(=O)[C@H](CC(C)C)NC(=O)[C@H](Cc1ccc(O)cc1)NC(=O)[C@H](CCCCN)NC(=O)[C@H](CO)NC(=O)[C@@H](NC(=O)[C@H](CC(=O)O)NC(=O)[C@H](CO)NC(=O)[C@@H](NC(=O)[C@H](Cc1ccccc1)NC(=O)[C@@H](NC(=O)CNC(=O)[C@H](Cc1c[nH]cn1)NC(=O)C1(NC(=O)CCc2c[nH]cn2)CCC1)[C@@H](C)O)[C@@H](C)O)C(C)C)C(=O)N[C@@H](C)C(=O)N[C@@H](Cc1c[nH]c2ccccc12)C(=O)N[C@@H](CC(C)C)C(=O)N[C@@H](CC(C)C)C(=O)N[C@@H](CCCCNC(=O)CNC(=O)[C@H](CO)NC(=O)[C@H](CCC(=O)O)NC(=O)CNC(=O)[C@H](CO)NC(=O)CC[C@H](NC(=O)CC[C@H](NC(=O)CCCCCCCCCCCCCCCCC(=O)O)C(=O)O)C(=O)O)C(=O)N[C@H](C(N)=O)[C@@H](C)O` [Example 9, N^ε34-[2-[[(2S)-2-[[(2S)-4-carboxy-2-[[2-[[(2S)-2-[[(4S)-4-carboxy-4-[[(4S)-4-carboxy-4-(17-carboxyheptadecanoylamino)butanoyl]amino]butanoyl]amino]-3-hydroxypropanoyl]amino]acetyl]amino]butanoyl]amino]-3-hydroxypropanoyl]amino]acetyl]-[Imp7,Acb8,His9,Lys18,Glu22,Arg26,Leu33,Thr35]-GLP-1-(7-35)-peptide amide] (I: Desaminohistidyl-[Ac4c]HGTFTSDVSKYLEEQAAREFIAWLLKT-NH2 / II: {C18 diacid-γGlu-γGlu}-SGESG; amide I:27-II:C), the IC50 on human GLP-1 receptor stood at 0.1 nM. Besides, the “Chemical stability … over 14 days at 37° C.” value in series [1] came to 0.2%.

With `CC[C@H](C)[C@H](NC(=O)[C@H](Cc1ccccc1)NC(=O)[C@H](CCC(=O)O)NC(=O)[C@H](CCCNC(=N)N)NC(=O)[C@H](C)NC(=O)[C@H](C)NC(=O)[C@H](CCCNC(=N)N)NC(=O)CNC(=O)[C@H](CCC(=O)O)NC(=O)[C@H](CC(C)C)NC(=O)[C@H](Cc1ccc(O)cc1)NC(=O)[C@H](CCCCN)NC(=O)[C@H](CO)NC(=O)[C@@H](NC(=O)[C@H](CC(=O)O)NC(=O)[C@H](CO)NC(=O)[C@@H](NC(=O)[C@H](Cc1ccccc1)NC(=O)[C@@H](NC(=O)CNC(=O)[C@H](Cc1c[nH]cn1)NC(=O)[C@H](C)NC(=O)CCc1c[nH]cn1)[C@@H](C)O)[C@@H](C)O)C(C)C)C(=O)N[C@@H](C)C(=O)N[C@@H](Cc1c[nH]c2ccccc12)C(=O)N[C@@H](CC(C)C)C(=O)N[C@@H](CC(C)C)C(=O)N[C@@H](CCCCNC(=O)COCCOCCNC(=O)COCCOCCNC(=O)CC[C@H](NC(=O)CC[C@H](NC(=O)CC[C@H](NC(=O)CCCCCCCCCCCCCCCCC(=O)O)C(=O)O)C(=O)O)C(=O)O)C(=O)N[C@H](C(N)=O)[C@@H](C)O` [Example 10, N^ε34-[2-[2-[2-[[2-[2-[2-[[(4S)-4-carboxy-4-[[(4S)-4-carboxy-4-[[(4S)-4-carboxy-4-(17-carboxyheptadecanoylamino)butanoyl]amino]butanoyl]amino]butanoyl]amino]ethoxy]ethoxy]acetyl]amino]ethoxy]ethoxy]acetyl]-[Imp7,His9,Lys18,Arg23,Arg26,Leu33,Thr35]-GLP-1-(7-35)-peptide amide] (Desaminohistidyl-AHGTFTSDVSKYLEGRAAREFIAWLLK([AEEA-AEEA-γGlu-γGlu-γGlu-C18 diacid])T-NH2), the IC50 at human GLP-1 receptor worked out at 1 nM. Moreover, the “Chemical stability … over 14 days at 37° C.” value in series [1] is reported as 2.0%.
